Experimental data taken from patent US20240279214A1, “ALPHA4 BETA7 INEGRIN ANTAGONISTS AND USES THEREOF” (XinThera, Inc., priority 2022, published 2024).
Where two headings read alike, the source gives them in different places. Blank lines part the entries; values can stand above or below the compound they belong to.

Tests used:
[1] = 13-membered ring
[2] = target: T1, a4b7 integrin interaction with MadCAM-1 (Homo sapiens, UniProt P13612+P26010); assay: a4b7 Cell Capture Assay (RPMI8866 cells on MAdCAM-1 Fc coated plates); assay type: cell-based; conditions: 50% human serum, 1 mM MgCl2, 1 hour incubation, CellTiter-Glo luminescence, read-out: a4B7 cell capture assay RMPI8866-MadCAM EC50
T1 construct: capture of a4b7 integrin expressing cells, RPMI8866; endogenous in cells; host or cells: RPMI8866
T1 sequence (P13612 34-1032): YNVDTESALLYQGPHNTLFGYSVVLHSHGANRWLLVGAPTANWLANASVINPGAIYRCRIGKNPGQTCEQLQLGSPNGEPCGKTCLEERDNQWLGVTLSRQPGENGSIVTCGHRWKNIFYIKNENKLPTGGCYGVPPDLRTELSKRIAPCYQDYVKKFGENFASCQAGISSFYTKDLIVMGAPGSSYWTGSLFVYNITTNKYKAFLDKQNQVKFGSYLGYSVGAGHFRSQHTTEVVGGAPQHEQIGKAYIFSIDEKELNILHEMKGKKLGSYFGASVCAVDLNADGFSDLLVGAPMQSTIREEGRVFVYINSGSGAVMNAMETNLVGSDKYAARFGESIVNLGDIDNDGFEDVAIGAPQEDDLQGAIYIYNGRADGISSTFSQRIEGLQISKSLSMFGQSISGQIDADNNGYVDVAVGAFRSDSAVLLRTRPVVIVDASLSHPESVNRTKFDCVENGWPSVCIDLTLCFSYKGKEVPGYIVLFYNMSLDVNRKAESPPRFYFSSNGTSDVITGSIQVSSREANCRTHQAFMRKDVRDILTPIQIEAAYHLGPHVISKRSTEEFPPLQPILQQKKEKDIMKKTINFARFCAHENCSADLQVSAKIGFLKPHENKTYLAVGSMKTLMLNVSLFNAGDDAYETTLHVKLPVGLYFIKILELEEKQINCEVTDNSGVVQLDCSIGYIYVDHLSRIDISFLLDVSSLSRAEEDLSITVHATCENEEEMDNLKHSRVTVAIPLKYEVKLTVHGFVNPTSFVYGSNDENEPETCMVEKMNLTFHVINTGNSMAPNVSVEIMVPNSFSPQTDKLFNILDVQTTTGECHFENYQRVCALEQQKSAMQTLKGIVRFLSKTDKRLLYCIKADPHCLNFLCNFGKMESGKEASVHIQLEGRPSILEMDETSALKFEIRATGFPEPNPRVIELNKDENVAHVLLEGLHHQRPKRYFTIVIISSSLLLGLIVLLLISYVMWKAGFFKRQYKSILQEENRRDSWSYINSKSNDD
T1 sequence (P26010 20-798): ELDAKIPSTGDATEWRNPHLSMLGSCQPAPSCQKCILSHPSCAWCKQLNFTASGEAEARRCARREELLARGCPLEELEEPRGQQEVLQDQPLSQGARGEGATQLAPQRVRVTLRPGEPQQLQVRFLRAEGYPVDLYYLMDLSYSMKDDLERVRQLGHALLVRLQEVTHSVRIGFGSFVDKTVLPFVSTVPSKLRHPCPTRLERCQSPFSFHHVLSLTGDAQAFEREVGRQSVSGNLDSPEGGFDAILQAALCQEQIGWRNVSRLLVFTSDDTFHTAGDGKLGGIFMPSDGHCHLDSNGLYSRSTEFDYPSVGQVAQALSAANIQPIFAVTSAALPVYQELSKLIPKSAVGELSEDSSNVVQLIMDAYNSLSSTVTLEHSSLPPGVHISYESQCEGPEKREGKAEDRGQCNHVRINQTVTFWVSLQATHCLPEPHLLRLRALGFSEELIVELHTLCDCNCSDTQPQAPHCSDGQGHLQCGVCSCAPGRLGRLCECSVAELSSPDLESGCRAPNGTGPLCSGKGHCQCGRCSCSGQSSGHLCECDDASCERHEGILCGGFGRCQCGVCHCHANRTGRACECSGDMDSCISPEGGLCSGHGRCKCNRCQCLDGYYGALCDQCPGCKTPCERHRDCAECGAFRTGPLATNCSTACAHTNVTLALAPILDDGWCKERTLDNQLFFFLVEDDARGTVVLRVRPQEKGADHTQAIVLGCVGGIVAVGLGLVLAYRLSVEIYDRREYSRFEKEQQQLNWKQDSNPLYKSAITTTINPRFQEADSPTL
Method in brief: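 RPMI8866 cells (1.0×10^6 cells/mL) in 1 mM MgCl2, 25 mM HEPES, 50% human serum were added to plates coated with human MAdCAM-1–IgG1 Fc (1.0 μg/mL) and exposed to compound (9-point, 0.08–1000 nM, 0.1% DMSO) for 1 h at 37 °C. Bound cells were read by CellTiter-Glo luminescence. IC50 came from 4-parameter fit of normalized % inhibition.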

SMILES: CCOC(=O)C[C@@H]1NC(=O)C(=O)c2cccc(c2)Cc2cccc(C)c2-c2cc(C)c(F)c1c2
- ring closure, isolated yield ([1]; from CCOC(=O)C[C@H](N)c1cc(-c2c(C)cccc2Cc2cccc(C(=O)C(=O)O)c2)cc(C)c1F, amide bond, TCFH/NMI, MeCN, 139.3 mM, 25.0 °C, 3.0 h): 32.5%

SMILES: CCOC(=O)C[C@@H]1NC(=O)C(n2c(=O)c3ccncc3n(C)c2=O)c2cc(ccc2F)Oc2cccc(C)c2-c2cc(C)c(F)c1c2 (some centres unmarked)
- ring closure, isolated yield ([1]; from CCOC(=O)C[C@H](NC(=O)C(c1cc(Br)ccc1F)n1c(=O)c2ccncc2n(C)c1=O)c1cc(-c2c(C)cccc2O)cc(C)c1F, ether bond, CuI/K2CO3/(1R,2R)-N1,N2-dimethylcyclohexane-1,2-diamine, 1,4-dioxane, 50.0 mM, 100.0 °C, 2.0 h): 82.6%

SMILES: CCOC(=O)C[C@@H]1NC(=O)C(n2cc(CCN3CC(F)(F)C3)c(C(F)(F)F)cc2=O)c2cc(ccc2F)Oc2cccc(C)c2-c2cc(C)c(F)c1c2 (some centres unmarked)
- ring closure, isolated yield ([1]; from CCOC(=O)C[C@H](NC(=O)C(c1cc(Br)ccc1F)n1cc(CCN2CC(F)(F)C2)c(C(F)(F)F)cc1=O)c1cc(-c2c(C)cccc2O)cc(C)c1F, ether bond, CuI/(1R,2R)-N1,N2-dimethylcyclohexane-1,2-diamine/K2CO3, 1,4-dioxane, 26.0 mM, 100.0 °C, 16.0 h): 50.3%

SMILES: CCOC(=O)C[C@@H]1NC(=O)C(n2cc(CCN3CC(F)C3)c(C(F)(F)F)cc2=O)c2cc(cc(C(F)(F)F)c2)Oc2cccc(C)c2-c2cc1c(F)c(C(F)(F)F)c2 (some centres unmarked)
- ring closure, isolated yield ([1]; from CCOC(=O)C[C@H](NC(=O)C(c1cc(Br)cc(C(F)(F)F)c1)n1cc(CCN2CC(F)C2)c(C(F)(F)F)cc1=O)c1cc(-c2c(C)cccc2O)cc(C(F)(F)F)c1F, ether bond, CuI/(1R,2R)-N1,N2-dimethylcyclohexane-1,2-diamine/K2CO3, dioxane, 15.0 mM, 100.0 °C, 2.0 h): 64.3%

SMILES: CCOC(=O)C[C@@H]1NC(=O)C(n2cc(CCN3CC(F)C3)c(C(F)(F)F)cc2=O)c2cc(ccc2C)Oc2cccc(C)c2-c2cc(C)c(F)c1c2 (some centres unmarked)
- ring closure, isolated yield ([1]; from CCOC(=O)C[C@H](NC(=O)C(c1cc(Br)ccc1C)n1cc(CCN2CC(F)C2)c(C(F)(F)F)cc1=O)c1cc(-c2c(C)cccc2O)cc(C)c1F, ether bond, CuI/K2CO3/(1R,2R)-N1,N2-dimethylcyclohexane-1,2-diamine, 1,4-dioxane, 100.0 °C): 88.9%

SMILES: CCOC(=O)C[C@@H]1NC(=O)C(n2cc(CCN3CC(F)C3)c(C(F)(F)F)cc2=O)c2cc(ccc2F)Oc2cc(C(C)(C)O)cc(C)c2-c2cc(C)c(F)c1c2 (some centres unmarked)
- ring closure, isolated yield ([1]; from CCOC(=O)C[C@H](NC(=O)C(c1cc(Br)ccc1F)n1cc(CCN2CC(F)C2)c(C(F)(F)F)cc1=O)c1cc(-c2c(C)cc(C(C)(C)O)cc2O)cc(C)c1F, ether bond, CuI/(1R,2R)-N1,N2-dimethylcyclohexane-1,2-diamine/K2CO3, 1,4-dioxane, 40.0 mM, 100.0 °C, 16.0 h): 28.3%

SMILES: CCOC(=O)C[C@@H]1NC(=O)C(n2cc(CCN3CC(F)C3)c(C(F)(F)F)cc2=O)c2cc(ccc2F)Oc2cc(C3COC3)cc(C)c2-c2cc(C)c(F)c1c2 (some centres unmarked)
- ring closure, isolated yield ([1]; from CCOC(=O)C[C@H](NC(=O)C(c1cc(Br)ccc1F)n1cc(CCN2CC(F)C2)c(C(F)(F)F)cc1=O)c1cc(-c2c(C)cc(C3COC3)cc2O)cc(C)c1F, ether bond, CuI/(1R,2R)-N1,N2-dimethylcyclohexane-1,2-diamine/K2CO3, 1,4-dioxane, 25.0 mM, 100.0 °C, 1.0 h): 31.8%

SMILES: CCOC(=O)C[C@@H]1NC(=O)C(n2cc(CCN3CC(F)C3)c(C(F)(F)F)cc2=O)c2cc(ccc2F)Oc2cccc(C)c2-c2cc(C)c(F)c1c2F (some centres unmarked)
- ring closure, isolated yield ([1]; from CCOC(=O)C[C@H](NC(=O)C(c1cc(Br)ccc1F)n1cc(CCN2CC(F)C2)c(C(F)(F)F)cc1=O)c1c(F)c(C)cc(-c2c(C)cccc2O)c1F, ether bond, CuI/K2CO3/(1R,2R)-N1,N2-dimethylcyclohexane-1,2-diamine, 1,4-dioxane, 48.0 mM, 100.0 °C): 72%

SMILES: CCOC(=O)C[C@@H]1NC(=O)C(n2cc(CCN3CC(F)C3)c(C(F)(F)F)cc2=O)c2cc(ccc2F)Oc2nn(C)cc2-c2cc(C)c(F)c1c2 (some centres unmarked)
- ring closure, isolated yield ([1]; from CCOC(=O)C[C@H](N)c1cc(-c2cn(C)nc2Oc2ccc(F)c(C(C(=O)O)n3cc(CCN4CC(F)C4)c(C(F)(F)F)cc3=O)c2)cc(C)c1F, amide bond, EDCI/HOBt/DIEA, MeCN, 32.6 mM, 60.0 °C, 6.0 h): 29.9%

SMILES: CCOC(=O)C[C@@H]1NC(=O)C(n2cc(CCN3CC(F)C3)c(C(F)(F)F)cc2=O)c2cc(ccc2F)Oc2nn(CC3CC3)cc2-c2cc(C)c(F)c1c2 (some centres unmarked)
- ring closure, isolated yield ([1]; from CCOC(=O)C[C@H](N)c1cc(-c2cn(CC3CC3)nc2Oc2ccc(F)c(C(C(=O)O)n3cc(CCN4CC(F)C4)c(C(F)(F)F)cc3=O)c2)cc(C)c1F, amide bond, EDCI/HOBt/DIEA, MeCN, 45.0 mM, 60.0 °C, 2.0 h): 14.6%

SMILES: CCOC(=O)C[C@@H]1NC(=O)C(n2cc3ccccc3cc2=O)c2cc(ccc2F)Oc2cccc(C)c2-c2cc(C)c(F)c1c2 (some centres unmarked)
- ring closure, isolated yield ([1]; from CCOC(=O)C[C@H](NC(=O)C(c1cc(Br)ccc1F)n1cc2ccccc2cc1=O)c1cc(-c2c(C)cccc2O)cc(C)c1F, ether bond, CuI/(1R,2R)-N,N'-dimethylcyclohexane-1,2-diamine/K2CO3, dioxane, 58.0 mM, 100.0 °C, 2.0 h): 33.9%

- EC50 [2]: 0.015 µM
SMILES: Cc1cc2c(F)c(c1F)[C@H](CC(=O)O)NC(=O)[C@@H](n1cc(CCN3CC(F)C3)c(C(F)(F)F)cc1=O)c1cc(ccc1F)Oc1cccc(C)c1-2 (single isomer, unassigned) [Example 77]

- EC50 [2]: 0.36 µM
SMILES: Cc1cccc2c1-c1cc(C3CC3)c(F)c(c1)[C@H](CC(=O)O)NC(=O)[C@@H](n1ccc(C(F)(F)F)cc1=O)c1cc(ccc1F)CO2 (single isomer, unassigned) [Example 78]

- EC50 [2]: 0.058 µM
SMILES: COc1cc(C)c2c(c1)Oc1ccc(F)c(c1)[C@H](n1ccc(C(F)(F)F)cc1=O)C(=O)N[C@@H](CC(=O)O)c1cc-2cc(C)c1F (single isomer, unassigned) [Example 80]

- EC50 [2]: 0.00095 µM
SMILES: Cc1cccc2c1-c1ccc(F)c(c1)[C@H](CC(=O)O)NC(=O)[C@@H](n1cc(CCN3CC(F)C3)c(C(F)(F)F)cc1=O)c1cc(ccc1F)O2 [Example 32, 2-((5S,8S)-1^4,4^4-difluoro-5-(5-(2-(3-fluoroazetidin-1-yl)ethyl)-2-oxo-4-(trifluoromethyl)pyridin-1(2H)-yl)-2^6-methyl-6-oxo-3-oxa-7-aza-1,4(1,3),2(1,2)-tribenzenacyclooctaphane-8-yl)acetic acid]

- EC50 [2]: 0.0013 µM
SMILES: Cc1cc2cc(c1F)[C@H](CC(=O)O)NC(=O)[C@@H](n1cc(CCN3CC(F)C3)c(C(F)(F)F)cc1=O)c1cc(cc(Cl)c1F)Oc1cccc(C)c1-2 [Example 38, [(14S,17S)-11-chloro-12,19-difluoro-14-{5-[2-(3-fluoroazetidin-1-yl)ethyl]-2-oxo-4-(trifluoromethyl)pyridin-1-yl}-3,20-dimethyl-15-oxo-8-oxa-16-azatetracyclo[16.3.1.1^{9,13}.0^{2,7}]tricosa-1(22),2(7),3,5,9,11,13(23),18,20-nonaen-17-yl]acetic acid]

- EC50 [2]: > 0.1 µM
SMILES: Cc1cccc2c1-c1cc(c(F)c(C(F)(F)F)c1)[C@H](CC(=O)O)NC(=O)[C@@H](n1cc(Cl)c(C(F)(F)F)cc1=O)c1cccc(c1)O2 [Example 39, [(17S)-14-[5-chloro-2-oxo-4-(trifluoromethyl)pyridin-1-yl]-19-fluoro-3-methyl-15-oxo-20-(trifluoromethyl)-8-oxa-16-azatetracyclo[16.3.1.1^{9,13}.0^{2,7}]tricosa-1(22),2(7),3,5,9,11,13(23),18,20-nonaen-17-yl]acetic acid]
